The values that follow come from patent US20070010568A1, “Substituted azabicyclo hexane derivatives as muscarinic receptor antagonists” (priority 2003, published 2007).

Bounds are passed on as bounds.

Test [1] addresses T1, M2 muscarinic receptor (Rattus norvegicus, UniProt P10980).
T1 construct: Submandibular glands and heart were isolated and placed in ice cold homogenising buffer; from tissue; host or cells: rat heart membrane homogenate
T1 sequence (P10980 1-466): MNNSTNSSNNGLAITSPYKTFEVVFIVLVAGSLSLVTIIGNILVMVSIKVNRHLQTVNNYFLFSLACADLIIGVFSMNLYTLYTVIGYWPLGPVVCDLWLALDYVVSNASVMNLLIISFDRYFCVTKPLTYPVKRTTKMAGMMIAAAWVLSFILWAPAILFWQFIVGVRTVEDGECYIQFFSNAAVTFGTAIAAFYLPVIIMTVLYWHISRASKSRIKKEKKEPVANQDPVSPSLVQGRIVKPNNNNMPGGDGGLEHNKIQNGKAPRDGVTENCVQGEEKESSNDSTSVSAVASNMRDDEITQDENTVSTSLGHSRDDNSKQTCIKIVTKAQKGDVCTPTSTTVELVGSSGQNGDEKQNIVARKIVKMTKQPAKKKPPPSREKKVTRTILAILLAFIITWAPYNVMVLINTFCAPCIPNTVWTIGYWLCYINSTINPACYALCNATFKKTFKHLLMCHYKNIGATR
In words: Radioligand binding assay, [3H]-N-methylscopolamine, rat heart membranes. Particulars: [3H]NMS, 24-25° C., read-out: Receptor Binding Assay M2 (pKi) (converted). The method, then:
(§1) The affinity of test compounds for M2 and M3 muscarinic receptor subtypes was determined by [^3H]-N-methylscopolamine binding studies using rat heart and submandibular gland respectively as described by Moriya et al., (Life Sci., 1999; 64 (25): 2351-2358).
(§2) Membrane preparation: Submandibular glands and heart were isolated and placed in ice cold homogenising buffer (EPES 20 mM, 10 mM EDTA, pH 7.4) immediately after sacrifice. The tissues were homogenised in 10 volumes of homogenising buffer and the homogenate was filtered through two layers of wet gauze and filtrate was centrifliged at 500 g for 10 min. The supernatant was subsequently centrifuged at 40,000 g for 20 min. The pellet thus obtained was resuspended in same volume of assay buffer (HEPES 20 mM, EDTA 5 mM, pH 7.4) and were stored at −70° C. until the time of assay.
(§3) Ligand binding assay: The compounds were dissolved and diluted in DMSO. The membrane homogenates (150-250 μg protein) were incubated in 250 μl of assay buffer (HEPES 20 mM, pH 7.4) at 24-25° C. for 3 h. Non-specific binding was determined in the presence of 1 μM atropine. The incubation was terminated by vaccum filtration over GF/B fiber filters(Wallac). The filters were then washed with ice cold 50 mM Tris HCl buffer (pH 7.4). The filter mats were dried and bound radioactivity retained on filters was counted. The IC50 & Kd were estimated by using the non-linear curve fitting program using G Pad Prism software. The value of inhibition constant Ki was calculated from competitive binding studies by using Cheng & Prusoff equation (Biochem Pharmacol, 1973,22: 3099-3108), Ki=IC50/(1+L/Kd), where L is the concentration of [^3H]NMS used in the particular experiment. pKi=−log Ki Functional Experiments Using Isolated Rat Bladder: Methodology: […]

The target in test [2] is T2, M3 muscarinic receptor (Rattus norvegicus, UniProt P08483).
T2 construct: Submandibular glands and heart were isolated and placed in ice cold homogenising buffer; from tissue; host or cells: rat submandibular gland membrane homogenate
T2 sequence (P08483 whole entry): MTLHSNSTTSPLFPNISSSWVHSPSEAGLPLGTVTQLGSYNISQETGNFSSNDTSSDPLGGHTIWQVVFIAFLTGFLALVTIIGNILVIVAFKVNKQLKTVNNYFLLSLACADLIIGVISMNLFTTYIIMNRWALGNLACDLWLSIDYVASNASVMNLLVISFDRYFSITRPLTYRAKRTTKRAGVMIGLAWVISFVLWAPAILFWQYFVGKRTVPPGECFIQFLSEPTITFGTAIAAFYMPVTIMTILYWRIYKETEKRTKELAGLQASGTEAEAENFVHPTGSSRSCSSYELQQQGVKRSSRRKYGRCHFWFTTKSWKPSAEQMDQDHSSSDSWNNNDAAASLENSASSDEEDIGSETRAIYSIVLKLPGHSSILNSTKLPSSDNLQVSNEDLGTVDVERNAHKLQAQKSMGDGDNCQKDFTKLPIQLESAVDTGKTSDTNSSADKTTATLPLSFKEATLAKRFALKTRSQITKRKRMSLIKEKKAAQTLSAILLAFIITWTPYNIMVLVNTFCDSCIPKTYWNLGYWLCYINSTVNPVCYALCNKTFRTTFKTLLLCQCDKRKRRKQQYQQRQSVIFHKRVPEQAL
As to the kind of experiment: Radioligand binding assay, [3H]-N-methylscopolamine, rat submandibular gland membranes. The conditions noted are these: [3H]NMS, 24-25° C., read-out: Receptor Binding Assay M3 (pKi) (converted). How it is done: as §1, §2, §3

As to `O=C(CC(c1ccccc1)(c1ccccc1)c1ccccc1)N[C@H]1[C@@H]2CN(CCc3ccc4c(c3)OCO4)C[C@@H]21` [Compound No. 3, (1α, 5α, 6α)-N-[3-{2-(3,4-methylenedioxy-phenyl)ethyl}-3-azabicyclo [3.1.0]-hexyl-6-amino-yl]-3,3,3-triphenylpropionamide], the Ki in test [1] and in test [2] was above 1000 nM in each case.
Consider `O=C(CNC(=O)CC(c1ccccc1)(c1ccccc1)c1ccccc1)NCCC(=O)N[C@H]1[C@@H]2CN(Cc3ccccc3)C[C@@H]21` [Compound No. 6, (1α, 5α, 6α)-N-[(3-oxopropyl]amino-2-oxoethyl-3-benzyl-3-azabicyclo [3.1.0]-hexyl-6-amino-yl]-3,3,3-triphenyl propionamide], for which the Ki in test [1] and in test [2] was above 1000 nM in each case.
Regarding `O=C(CC(c1ccccc1)(c1ccccc1)c1ccccc1)N[C@H]1[C@@H]2CN(Cc3ccccc3)C[C@@H]21` [Compound No. 1, (1α, 5α, 6α)-N-[3-benzyl-3-azabicyclo[3.1.0]-hexyl-6-amino-yl]-3,3,3-triphenylpropionaniide], the Ki in test [1] and in test [2] was above 1000 nM each time.
For `O=C(CC(c1ccccc1)(c1ccccc1)c1ccccc1)N[C@H]1[C@@H]2CN(CC(=O)c3ccc4c(c3)CCO4)C[C@@H]21` [Compound No. 4, (1α, 5α, 6α)-N-[3-{2-oxo-2-(2,3-dihydrobenzofuran-5-yl)ethyl}-3-azabicyclo[3.1.0]-hexyl-6-amino-yl]-3,3,3-triphenyl propionamide], the Ki in test [1] and in test [2] was above 1000 nM each time.
Consider `O=C(N[C@H]1[C@@H]2CNC[C@@H]21)C(O)(c1ccc(F)cc1)c1ccc(F)cc1` [Compound No. 7, (1α, 5α, 6α)-N-[3-azabicylo[3.1.0]-hexyl-6-amino-yl]-2-hydroxy-2,2-bis-4-fluorophenyl acetamide], for which the Ki in test [1] and in test [2] was above 1000 nM in each case.
On to `CCCOC(C(=O)N[C@H]1[C@@H]2CNC[C@@H]21)(c1ccc(F)cc1)c1ccc(F)cc1` [Compound No. 8, (1α, 5α, 6α)-N-[3-azabicyclo[3.1.0]-hexyl-6-amino-yl]-2-propyloxy-2,2-bis-4-fluorophenyl acetamide], for which the Ki in test [1] and in test [2] was above 1000 nM in each case.
In the case of `CC(C)=CCCN1C[C@@H]2[C@H](C1)[C@H]2NC(=O)CC(c1ccccc1)(c1ccccc1)c1ccccc1` [Compound No. 2, (1α, 5α, 6α)-N-[3-(4-methyl-3-pentenyl)-3-azabicyclo[3.1.0]-hexyl-6-amino-yl]-3,3,3-triphenyl propionamide], the Ki in test [1] and in test [2] was above 1000 nM in each case.
For the molecule `O=C(CCNC(=O)CNC(=O)CC(c1ccccc1)(c1ccccc1)c1ccccc1)NC[C@@H]1[C@H]2CN(Cc3ccccc3)C[C@@H]12` [Compound No. 5, (1α, 5α, 6α)-N-[(3-oxopropyl)amino-2-oxoethyl-3-benzyl-3-azabicyclo [3.1.0]-hexyl-6-aminomethyl]-3,3,3-triphenyl propionamide], the Ki in test [1] and in test [2] was above 1000 nM throughout.
